Test results published in ChEMBL document CHEMBL1141205, “Design, synthesis, and evaluation of octahydropyranopyrrole-based inhibitors of mammalian ribonucleotide reductase” (Bioorg Med Chem Lett, 2005).
Active and inactive are the calls of the source. The calls are words filed in the database; no cut-off is given here.

Key:
[1] = molecular target: Ribonucleoside-diphosphate reductase RR1 (Homo sapiens) (UniProt P23921+Q7LG56+P31350); experiment: (§1) Inhibition of mammalian ribonucleotide reductase (mRR); format: protein-complex assay
[2] = molecular target: T1, Ribonucleoside-diphosphate reductase RR1 (Homo sapiens, UniProt P23921+P31350+Q7LG56); experiment: as §1; format: protein-complex assay
T1 sequence (P23921 whole entry): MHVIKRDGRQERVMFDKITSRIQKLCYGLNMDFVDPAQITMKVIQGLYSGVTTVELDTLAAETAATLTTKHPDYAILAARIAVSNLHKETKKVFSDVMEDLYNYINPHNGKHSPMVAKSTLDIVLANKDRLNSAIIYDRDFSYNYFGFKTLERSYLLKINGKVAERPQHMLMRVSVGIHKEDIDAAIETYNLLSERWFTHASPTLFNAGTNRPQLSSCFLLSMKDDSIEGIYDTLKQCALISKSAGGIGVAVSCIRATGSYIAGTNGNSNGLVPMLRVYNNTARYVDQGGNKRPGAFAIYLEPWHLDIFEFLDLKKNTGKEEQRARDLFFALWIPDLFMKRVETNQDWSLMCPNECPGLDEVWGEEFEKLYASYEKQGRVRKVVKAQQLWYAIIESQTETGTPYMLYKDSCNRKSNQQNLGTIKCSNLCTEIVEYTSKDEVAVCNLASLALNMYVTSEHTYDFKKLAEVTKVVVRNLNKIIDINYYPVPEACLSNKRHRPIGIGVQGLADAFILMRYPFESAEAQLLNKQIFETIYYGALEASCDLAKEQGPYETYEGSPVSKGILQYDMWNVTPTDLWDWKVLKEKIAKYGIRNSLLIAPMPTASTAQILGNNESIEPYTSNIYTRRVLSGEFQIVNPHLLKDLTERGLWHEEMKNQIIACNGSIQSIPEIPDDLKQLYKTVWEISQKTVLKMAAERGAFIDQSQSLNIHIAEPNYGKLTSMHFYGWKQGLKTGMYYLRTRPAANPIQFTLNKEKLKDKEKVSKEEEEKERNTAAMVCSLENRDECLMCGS
T1 sequence (Q7LG56 whole entry): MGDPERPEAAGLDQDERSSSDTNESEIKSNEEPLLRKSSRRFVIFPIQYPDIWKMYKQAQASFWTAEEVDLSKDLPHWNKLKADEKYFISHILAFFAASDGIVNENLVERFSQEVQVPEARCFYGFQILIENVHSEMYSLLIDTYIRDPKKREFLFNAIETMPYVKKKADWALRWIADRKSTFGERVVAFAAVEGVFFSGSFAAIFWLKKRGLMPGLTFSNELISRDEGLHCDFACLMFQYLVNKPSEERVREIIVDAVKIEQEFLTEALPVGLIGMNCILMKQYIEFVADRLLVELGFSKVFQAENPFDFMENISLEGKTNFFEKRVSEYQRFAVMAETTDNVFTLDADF
T1 sequence (P31350 whole entry): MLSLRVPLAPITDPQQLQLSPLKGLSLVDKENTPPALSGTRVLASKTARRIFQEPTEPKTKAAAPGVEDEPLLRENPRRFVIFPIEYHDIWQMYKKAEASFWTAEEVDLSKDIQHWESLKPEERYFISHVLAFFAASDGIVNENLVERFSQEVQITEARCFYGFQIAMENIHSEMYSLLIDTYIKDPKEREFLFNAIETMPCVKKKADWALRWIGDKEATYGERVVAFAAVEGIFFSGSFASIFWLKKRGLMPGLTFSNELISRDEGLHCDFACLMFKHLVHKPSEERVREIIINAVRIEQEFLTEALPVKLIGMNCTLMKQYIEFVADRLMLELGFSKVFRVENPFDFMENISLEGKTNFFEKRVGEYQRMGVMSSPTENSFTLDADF

SMILES	Activity [1]	IC50 [2] [µM]
CC(C)CO[C@@H]1C[C@@H]2[C@@H]([C@@H](COC(=O)CCc3ccccc3)O1)N(CC(=O)N[C@@H](CC(=O)O)C(=O)N[C@@H](Cc1ccccc1)C(=O)O)C[C@H]2O	Active	
CC(C)CO[C@@H]1C[C@@H]2[C@@H]([C@@H](COC(=O)CCC3c4ccccc4-c4ccccc43)O1)N(CC(=O)N[C@@H](CC(=O)O)C(=O)N[C@@H](Cc1ccccc1)C(=O)O)C[C@H]2O		40
CC(C)CO[C@@H]1C[C@@H]2[C@@H]([C@@H](COC(=O)COc3ccc4ccccc4c3)O1)N(CC(=O)N[C@@H](CC(=O)O)C(=O)N[C@@H](Cc1ccccc1)C(=O)O)C[C@H]2O	inactive	
CC(C)CO[C@@H]1CC[C@H](N(C)CC(=O)N[C@@H](CC(=O)O)C(=O)N[C@@H](Cc2ccccc2)C(=O)O)[C@@H](COC(=O)CCc2ccccc2)O1	inactive	
CC(C)CO[C@@H]1CC[C@H](N(C)CC(=O)N[C@@H](CC(=O)O)C(=O)N[C@@H](Cc2ccccc2)C(=O)O)[C@@H](COC(=O)CCC2c3ccccc3-c3ccccc32)O1	inactive	
